“And” between values parts separate entries of the source, which are not always exact repeats. Identical values can stand only once. Like-named read-outs stand apart in the source and are kept apart here.
How the values were obtained:
[1] = Recovery over time from exposure to cell culture media without cells (GC-MS/MS); type: physicochemical
[2] = Loading kinetics of silicone micro-O-rings from methanol PAH solution (GC-MS/MS); type: physicochemical
[3] = Table S1; ref PubChem; cited from earlier work
[4] = O-ring loading rate constant, larger O-rings; ref Smith et al. 2010 [24]; cited from earlier work
[5] = Smith et al. O-Rings; ref Smith et al. 2010 [24]; cited from earlier work
[6] = MAF (400 ng/mL each PAH), one phase decay fit of nominal recovery
[7] = MAF (400 ng/mL each PAH), one phase decay fit of nominal recovery (text: ng/mL)
[8] = O-Rings (loaded in 10 µg/mL PAH solution), one phase association fit of nominal recovery
[9] = O-Rings, one phase association fit
[10] = O-Rings, one phase association fit (desorption into media)
[11] = Solvent Extract (DMSO, 15 ng/mL each PAH), one phase decay fit of nominal recovery
[12] = Solvent Extract (DMSO, 15 ng/mL each PAH), one phase decay fit of nominal recovery (text: ng/mL)
[13] = Solvent Extract, one phase decay fit
[14] = loading rate constant, one-phase association (h^-1), 10 µg/mL PAH mix in methanol
[15] = one-phase association fit of nominal Csilicone (µg/mL per Eq 1), 10 µg/mL PAH mix in methanol
[16] = one-phase association fit of nominal Csilicone, 10 µg/mL PAH mix in methanol, 0-24 h
[17] = one-phase association fit, micro-O-ring absorption

SMILES | Y0 [1, 6] | Plateau [1, 7] | K ([1]; MAF, one phase decay fit) | Span ([1]; MAF, one phase decay fit) | Tau ([1]; MAF, one phase decay fit) | Plateau [1, 8] | Y0 [1, 8] | Half-time [1, 9] | Span [1, 9] | Tau [1, 9] | K [1, 10] | Y0 [1, 11] | Half-time [1] | Half-time Value [2] | K Value [2] | Plateau Value [2] | Span Value [2] | Tau Value [2] | Y0 [2] | Smith et al. 2010 K Value [4] | other results
Cc1cccc2ccccc12 [1-Methylnaphthalene] | 399.6 | 37.1 | 1.206 | 362.5 | 0.8293 | 1.035 | -0.0496 | 1.691 | 1.085 | 2.439 | 0.41 | 14.94 |  |  |  |  |  |  |  |  | Plateau [1, 12]: 2.307; K [1, 13]: 0.9085; Span [1, 13]: 12.63; Tau [1, 13]: 1.101; best-fit rate constants (micro-O-ring loading) ([2]; loading from methanol solution): 26.7 h⁻¹; K Value [2, 14]: 26.6865; Plateau Value [2, 15]: 0.8912; Y0 [2, 16]: 0; Half-time Value [2, 17]: 0.02597; Span Value [2, 17]: 0.8912; Tau Value [2, 17]: 0.03747; LogKow (PubChem) [3]: 3.87
Cc1ccc2ccccc2c1 [2-Methylnaphthalene] |  |  |  |  |  |  |  |  |  |  |  |  | 0.5872 | 0.02597 | 26.6855 | 0.8914 | 0.8914 | 0.03747 | 0 |  | K [1]: 1.206 and 1.18 and 0.9072; Tau [1]: 0.8294 and 0.8472 and 1.102; best-fit rate constants (micro-O-ring loading) [2]: 26.7 h⁻¹
c1cc2c3c(cccc3c1)CC2 [Acenaphthene] | 398.6 | 44.72 | 0.9374 | 353.9 | 1.067 | 0.8203 | -0.03588 | 2.678 | 0.8562 | 3.863 | 0.2589 | 14.88 |  |  |  |  |  |  |  | 1.8 | Plateau [1, 12]: 2.58; K [1, 13]: 0.7259; Span [1, 13]: 12.3; Tau [1, 13]: 1.378; K Value [2, 14]: 22.38; Plateau Value [2, 15]: 0.8224; Y0 [2, 16]: 0; Half-time Value [2, 17]: 0.03097; Span Value [2, 17]: 0.8224; Tau Value [2, 17]: 0.04468; LogKow (PubChem) [3]: 3.92
C1=Cc2cccc3cccc1c23 [Acenaphthylene] | 399.1 | 41.99 | 1.016 | 357.1 | 0.9842 | 0.6692 | -0.08033 | 0.6114 | 0.7495 | 0.882 | 1.134 | 14.88 |  |  |  |  |  |  |  |  | Plateau [1, 12]: 2.66; K [1, 13]: 0.7341; Span [1, 13]: 12.22; Tau [1, 13]: 1.362; K Value [2, 14]: 22.7382; Plateau Value [2, 15]: 0.6656; Y0 [2, 16]: 0; Half-time Value [2, 17]: 0.03048; Span Value [2, 17]: 0.6656; Tau Value [2, 17]: 0.04398
c1ccc2cc3c(ccc4ccccc43)cc2c1 [Benzo[a]anthracene] |  |  |  |  |  |  |  |  |  |  |  |  | 2.255 | 4.451 | 0.1557 | 0.1684 | 0.1684 | 6.421 | 0 | 1.38 | 
c1ccc2c(c1)-c1cccc3c1c-2cc1ccccc13 [Benzo[b]fluoranthene] |  |  |  |  |  |  |  |  |  |  |  |  | 1.392 | 0.02358 | 29.3997 | 0.1089 | 0.1089 | 0.03401 | 0 |  | 
c1cc2ccc3ccc4ccc5cccc6c(c1)c2c3c4c56 [Benzo[g,h,i]perylene] |  |  |  |  |  |  |  |  |  |  |  |  | 1.63 | 0.01297 | 53.4605 | 0.06193 | 0.06193 | 0.01871 | 0 |  | 
c1ccc2cc3c(cc2c1)-c1cccc2cccc-3c12 [Benzo[k]fluoranthene] | 386 | 124.5 | 0.2609 | 261.5 | 3.833 | 0.7223 | 0.005418 | 1.391 | 0.7169 | 2.006 | 0.4984 | 15.74 |  |  |  |  |  |  |  |  | Plateau [1, 12]: 4.199; K [1, 13]: 0.1008; Span [1, 13]: 11.54; Tau [1, 13]: 9.919; K Value [2, 14]: 29.8778; Plateau Value [2, 15]: 0.1081; Y0 [2, 16]: 0; Half-time Value [2, 17]: 0.0232; Span Value [2, 17]: 0.1081; Tau Value [2, 17]: 0.03347; LogKow (PubChem) [3]: 6.11
c1ccc(-c2ccccc2)cc1 [Biphenyl] |  |  |  |  |  |  |  |  |  |  |  |  | 0.591 | 0.02096 | 33.0653 | 0.6997 | 0.6997 | 0.03024 | 0 |  | K [1]: 1.298 and 1.173 and 1.091; Tau [1]: 0.7703 and 0.8527 and 0.917
c1ccc2c(c1)ccc1c3ccccc3ccc21 [Chrysene] |  |  |  |  |  |  |  |  |  |  |  |  | 77098 | 4.881 | 0.142 | 0.1581 | 0.1581 | 7.042 | 0 | 1.37 | 
c1ccc2c(c1)ccc1cc3c(ccc4ccccc43)cc12 [Dibenzo[a,h]anthracene] |  |  |  |  |  |  |  |  |  |  |  |  | 1.539 | 3.094e-6 |  | 0.033 | 0.033 | 4.463e-6 | 0 | 1.1 | 
c1ccc2c(c1)-c1ccc3ccc4cccc5cc-2c1c3c45 [Indeno[1,2,3-cd]pyrene] |  |  |  |  |  |  |  |  |  |  |  |  | 2.714 | 0.01649 | 42.0316 | 0.0758 | 0.0758 | 0.02379 | 0 |  | 
c1ccc2ccccc2c1 [Naphthalene] | 399.7 | 38.47 | 1.287 | 361.2 | 0.7773 | 1.084 | -0.1564 | 0.378 | 1.24 | 0.5454 | 1.834 | 14.8 |  |  |  |  |  |  |  | 2.38 | Plateau [1, 12]: 3.339; K [1, 13]: 0.6384; Span [1, 13]: 11.46; Tau [1, 13]: 1.566; K [5]: 3.55; K Value [2, 14]: 33.9576; Plateau Value [2, 15]: 0.7013; Y0 [2, 16]: 0; Half-time Value [2, 17]: 0.02041; Span Value [2, 17]: 0.7013; Tau Value [2, 17]: 0.02945
c1cc2cccc3c4cccc5cccc(c(c1)c23)c54 [Perylene] |  |  |  |  |  |  |  |  |  |  |  |  | 1.656 | 0.02047 | 33.856 | 0.1047 | 0.1047 | 0.02954 | 0 |  | 
c1cc2ccc3cccc4ccc(c1)c2c34 [Pyrene] |  |  |  |  |  |  |  |  |  |  |  |  | 0.6521 | 0.03121 | 22.209 | 0.4017 | 0.4017 | 0.04503 | 0 | 1.35 | K [5]: 1.04

Source: article PMC9866728, “Dosing Methods to Enable Cell-Based In Vitro Testing of Complex Substances: A Case Study with a PAH Mixture” (Toxics, 2022)
